The results in this text go back to PubChem BioAssay (NCI).

Among the test systems are CAKI-1 renal; CCRF-CEM leukemia; COLO 205 colon; HCC-2998 colon; HL-60(TB) leukemia; NCI-H460 lung; RXF 393 renal; SF-268 CNS; SF-539 CNS; BT-549 breast.
Common to all, as to assay: growth of human tumour cells (NCI), 48 h

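48-hour exposure; five concentrations; linearly interpolated endpoints. The concentration for full growth arrest is given as TGI.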

Consider `CC1(C)N=C(/C(Cl)=[N+](/[O-])C(=O)c2ccc(F)cc2)C(C)(C)N1O`, for which the TGI in the assay on CAKI-1 renal is 34.5 µM; in the assay with CCRF-CEM leukemia, 12.8 µM; in the assay on COLO 205 colon it was 38.2 µM; in the assay with HCC-2998 colon it was 35.4 µM; with HL-60(TB) leukemia it was 27.3 µM; in the assay on NCI-H460 lung it was greater than 100 µM. Moreover, the figures for the TGI in the assay with RXF 393 renal, in the assay with SF-268 CNS and with SF-539 CNS were 28.8 µM, 33.6 µM and 40.1 µM, respectively.

Take `CCOC(=O)N1CCC2(CC1)C[C@](C)(C(C)=O)C(C)O2` (some centres undefined): the TGI with CAKI-1 renal is greater than 100 µM; in the assay on COLO 205 colon, greater than 100 µM; in the assay on HCC-2998 colon it was greater than 100 µM; with HL-60(TB) leukemia, 17.8 µM; in the assay on NCI-H460 lung it was greater than 100 µM; in the assay with SF-268 CNS, greater than 100 µM. This compound showed a TGI in the assay with SF-539 CNS greater than 100 µM.

With `CCC[C@@H](O)C[C@@H]1CCC[C@H](C[C@@H](O)CC)N1C`, the TGI with BT-549 breast, in the assay with CAKI-1 renal, with CCRF-CEM leukemia, in the assay on COLO 205 colon, in the assay on HCC-2998 colon and with HL-60(TB) leukemia was greater than 100 µM throughout. Moreover, the TGI is 45.1 µM with SF-268 CNS and greater than 100 µM in the assay with SF-539 CNS.

Regarding `CCC12C=CCN3CCC4(C(=C(C(=O)OC)[C@@H]1O)Nc1ccccc14)C32` (some centres undefined), the TGI was determined as 7.18 µM in the assay with CAKI-1 renal; 6 µM in the assay on CCRF-CEM leukemia; 3.22 µM in the assay with COLO 205 colon; 3.06 µM in the assay on HCC-2998 colon; 4.98 µM with HL-60(TB) leukemia; 3.71 µM in the assay with NCI-H460 lung. The TGI in the assay with RXF 393 renal came out at 2.65 µM; with SF-268 CNS it was 6.76 µM; with SF-539 CNS it was 4.72 µM.

For `CC(=O)Nc1ccc(-c2nnc(SCC(=O)Nc3ccc([N+](=O)[O-])cc3)o2)cc1`, the TGI in the assay with CAKI-1 renal was 27.5 µM; in the assay on CCRF-CEM leukemia it was greater than 100 µM; with COLO 205 colon, 27.3 µM; in the assay with HL-60(TB) leukemia, greater than 100 µM; with NCI-H460 lung it was 29.1 µM; with RXF 393 renal, 27.9 µM. Further, the TGI with SF-268 CNS stood at 27.7 µM; in the assay on SF-539 CNS, 39.2 µM.

Take `O=[N+]([O-])/C(C(Cl)=C(Cl)Cl)=C(\SCc1ccccc1)N1CCCCC1`: the TGI in the assay with CAKI-1 renal was greater than 100 µM; in the assay with CCRF-CEM leukemia it was 30.5 µM; in the assay with COLO 205 colon, 34.8 µM; with HCC-2998 colon it was 45.7 µM; in the assay with HL-60(TB) leukemia it was 29.6 µM; in the assay with NCI-H460 lung it was 78 µM. Besides, the TGI stood at 62.6 µM in the assay with RXF 393 renal, 74.3 µM with SF-268 CNS and 46 µM in the assay with SF-539 CNS.

`COC(=O)[C@H](Cc1c[nH]c2ccccc12)NP(=O)(O)OCC1C=CC(n2cc(C)c(=O)[nH]c2=O)O1` (some centres undefined): the TGI in the assay with BT-549 breast, in the assay on CAKI-1 renal, with CCRF-CEM leukemia, in the assay on COLO 205 colon, with HCC-2998 colon and with HL-60(TB) leukemia was greater than 100 µM each time. Also, the TGI in the assay with SF-268 CNS is greater than 100 µM.

In the case of `COc1cc([C@@H]2c3cc4c(cc3[C@@H](Nc3ccc([N+](=O)[O-])cc3C(=O)c3ccccc3)[C@H]3COC(=O)[C@H]23)OCO4)cc(OC)c1OC`, the TGI in the assay on CAKI-1 renal was greater than 100 µM; in the assay on CCRF-CEM leukemia, greater than 100 µM; with HCC-2998 colon, greater than 100 µM; in the assay with RXF 393 renal, greater than 100 µM; in the assay on SF-268 CNS, greater than 100 µM; in the assay with SF-539 CNS, 0.502 µM.

Regarding `CC(=O)NC1=C(NCCC(C)C)C(=O)c2ccccc2C1=O`, the TGI in the assay on CCRF-CEM leukemia, in the assay on COLO 205 colon, with HCC-2998 colon, with HL-60(TB) leukemia, in the assay with NCI-H460 lung and with RXF 393 renal was greater than 50 µM in each case. Moreover, the TGI with SF-268 CNS and in the assay with SF-539 CNS was greater than 50 µM in each case.

As for `CC(C)CCCCCCCCCCCCC(=O)NCC(=O)NC1C(C)OC(Nc2ncnc3c2ncn3C)C(O)C1O` (centres undefined), the TGI in the assay on CAKI-1 renal is 5.6 µM; with CCRF-CEM leukemia, greater than 100 µM; in the assay on COLO 205 colon it was greater than 100 µM; in the assay on HCC-2998 colon, 11.6 µM; with HL-60(TB) leukemia it was 6.08 µM; in the assay on NCI-H460 lung it was greater than 100 µM. In addition, the TGI in the assay with RXF 393 renal is greater than 25.7 µM; with SF-268 CNS it was greater than 100 µM; in the assay with SF-539 CNS, 13.1 µM.

As for `C[n+]1c2ccccc2c(/C=N\NS(=O)(=O)c2ccc(O)c(C(=O)O)c2)c2ccccc21`, the TGI with CAKI-1 renal was greater than 100 µM; in the assay on CCRF-CEM leukemia it was greater than 100 µM; in the assay on HCC-2998 colon, greater than 100 µM; with HL-60(TB) leukemia, 84.2 µM; in the assay on NCI-H460 lung it was greater than 100 µM; with RXF 393 renal, greater than 100 µM. The TGI in the assay with SF-268 CNS and with SF-539 CNS was greater than 100 µM in each case.

On to `N.N.N.N.O=[N+]([O-])[O-].[Co+3].[N-]=[N+]=[N-].[N-]=[N+]=[N-]`, for which the TGI with CCRF-CEM leukemia, in the assay on COLO 205 colon, in the assay with HCC-2998 colon, in the assay on HL-60(TB) leukemia, in the assay on NCI-H460 lung and with SF-268 CNS was greater than 100 µM each time. Also, in the assay on SF-539 CNS, the TGI was greater than 100 µM.

As for `CNS(=O)(=O)NNS(=O)(=O)c1ccc2ccccc2c1`, the TGI in the assay with CAKI-1 renal, in the assay on CCRF-CEM leukemia, with COLO 205 colon, with HCC-2998 colon, in the assay with HL-60(TB) leukemia and with NCI-H460 lung was greater than 100 µM in each case. Further, the TGI in the assay on SF-268 CNS and in the assay with SF-539 CNS was greater than 100 µM each time.

Regarding `CN(C)CC[N+]1=Nc2cccc3cccc(c23)N1`, the TGI in the assay with CAKI-1 renal is greater than 100 µM; in the assay on CCRF-CEM leukemia, greater than 67.3 µM; in the assay on COLO 205 colon it was greater than 71.2 µM; in the assay on HCC-2998 colon, greater than 100 µM; with HL-60(TB) leukemia it was greater than 60.1 µM; with NCI-H460 lung, greater than 64.8 µM. Also, the TGI in the assay on SF-268 CNS and in the assay on SF-539 CNS was greater than 100 µM each time.

Take `N#CN=C(N(Cc1ccccc1)Cc1ccccc1)N(Cc1ccccc1)Cc1ccccc1`: the TGI in the assay with CAKI-1 renal is greater than 100 µM; in the assay with CCRF-CEM leukemia it was greater than 100 µM; in the assay on COLO 205 colon, greater than 100 µM; in the assay with HCC-2998 colon, greater than 100 µM; with HL-60(TB) leukemia it was 83.8 µM; in the assay on NCI-H460 lung it was greater than 100 µM. The TGI in the assay with SF-268 CNS and in the assay with SF-539 CNS was greater than 100 µM in each case.

Turning to `Cc1cn(C2CC(N(O)C(N)=O)C(CO)O2)c(=O)[nH]c1=O` (centres undefined), the TGI in the assay with CAKI-1 renal, in the assay on COLO 205 colon, in the assay on RXF 393 renal, in the assay on SF-268 CNS and in the assay with SF-539 CNS was greater than 100 µM throughout.
